According to ChEMBL document CHEMBL3301361, “Experimental in vitro DMPK and physicochemical data on a set of publicly disclosed compounds”:
≈ marks a conversion by molar mass, not a printed value. Residues, ends and D or L forms follow the SMILES beside them.

What was measured:
in vitro [1] = settings: human, liver microsomes
in vitro [2] = settings: hepatocytes
physchem [3] = settings: octan-1-ol/water
in vitro [4] = settings: human, plasma
physchem [5] = settings: pH 7.4 buffer

Structure (SMILES) | microsomal CLint (in vitro [1]) [µL/min/mg] | hepatocyte CLint (in vitro [2]) [µL/min/1e6 cells] | logD (physchem [3]; pH 7.4, LogD7.4) | fraction unbound at 5 h (in vitro [4]; PPB) | other results
O=C(NCCCCCCNCCc1ccc(O)c2nc(O)sc12)Nc1ccccc1 | 11 | 98 |  |  | 
CC(=O)N1N=C(c2ccc(Br)cc2)CC1c1ccc(C)cc1 (stereo not drawn) | 41.7 | 30.9 |  |  | 
COc1ccc2ncc(C#N)c(CCN3CCC(NCc4cc5c(cn4)OCS5)CC3)c2c1 |  | 72.4 | 2.55 | 0.089 | 
CCC(NC(=O)Nc1cc(Cl)ccc1Cl)(C(F)(F)F)C(F)(F)F | 7.41 | 22.9 |  |  | 
CCn1c(SCC(=O)Nc2cc(C)on2)nnc1-c1ccccc1 | 32.4 | > 150 |  |  | 
CC(NC(=O)c1cc(O)nc2ccccc12)c1ccccc1 (stereo not drawn) |  | 5.25 |  |  | logD (physchem [3]; pH 7.4): 2.2; fraction unbound at 5 h (in vitro [4]): 0.36
O=C(NS(=O)(=O)c1ccccc1Cl)c1ccc[nH]1 | < 3 | 3.31 |  |  | 
O=c1cc(-c2cccnc2)[nH]c2cc(Cc3ccccc3)ccc12 |  | 50 | 3.46 | 0.0051 | solubility thermodynamic (physchem [5]): 1.7 µM (≈ 0.531 µg/mL)
O=c1cc(-c2cccnc2)[nH]c2cc(C(O)c3ccccc3)ccc12 (stereo not drawn) |  | 46 |  | 0.0268 | solubility thermodynamic (physchem [5]): 288 µM (≈ 94.7 µg/mL)
C[C@@H]1CN(Cc2cc(Cl)ccc2OCC(=O)O)CCN1S(=O)(=O)c1ccccc1 |  | 7.48 |  | 0.0051 | 
C[C@H]1CN(Cc2cc(Cl)ccc2CCC(=O)O)CCN1C(=O)Cc1ccccc1 | < 3 | < 3 |  |  | 
Cc1ccc(CO)cc1N(C)c1ccnc(Nc2cc(N3CCOCC3)cc(N3CCOCC3)c2)n1 |  | 31.6 | 2.94 | 0.0818 | solubility thermodynamic (physchem [5]): 195 µM (≈ 95.7 µg/mL)
CC(C)S(=O)(=O)c1ccc(-c2cnc(N)c(C(=O)Nc3ccccc3)n2)cc1 | 10 | 20.9 |  |  | 
Cc1cc(Nc2nc(N[C@@H](C)c3ccc(F)cn3)c(C#N)cc2Cl)n[nH]1 |  | 6.17 |  | 0.0358 | 
O=c1[nH]c2c(O)ccc([C@@H](O)CNCCCSCCNCCc3ccccc3Cl)c2s1 | 11 | 12 |  |  | 
COc1cccc(CNc2nc(NC(C)C)nc3ccsc23)c1OC |  | > 150 |  |  | fraction unbound at 5 h (in vitro [4]): 0.0027
COc1cc2c(ccc(=O)n2CCN2CCC(NCc3cc4c(cn3)OCCO4)CC2)cn1 |  | 35.5 | 0.68 | 0.166 | 
Cc1c(Sc2ccc(Cl)cc2)c2cc(F)ccc2n1CC(=O)O | < 3 | 34 |  |  | 
C[C@@](C(=O)O[C@H]1C[N+]2(CCCc3ccncc3)CCC1CC2)(c1ccccc1)N1CCCCC1 |  | 82 |  |  | fraction unbound at 5 h (in vitro [4]): 0.483
Cc1ccc(S(=O)(=O)Nc2c(C(=O)N[C@@H](C)C(C)(C)C)c(C)nn2C2CCOC2)cc1 (stereo partly drawn) |  | < 3 | 0.78 | 0.0736 | 
NC1(c2ccc(-c3nc4ccccc4cc3-c3ccccc3)cc2)CCC1 |  | 148 |  |  | solubility thermodynamic (physchem [5]): 288 µM (≈ 101 µg/mL)
CC(=O)Nc1ccc2ccn(-c3cc(NC4COC4)n4ncc(C#N)c4n3)c2c1 |  | 21.9 | 2.24 | 0.124 | 
CC(=O)Nc1ccc2c(c1)c(-c1cc(NC3CC3)n3ncc(C#N)c3n1)cn2CCCO |  | 12.3 | 2.48 | 0.0119 | 
CO[C@H]1CC[C@]2(CC1)Cc1ccc(-c3cc(Cl)cc(C#N)c3)cc1C21N=C(C)C(N)=N1 (stereo partly drawn) |  | 12.6 | 3.8 | 0.0209 | 
Cc1cccc(C[C@@H](C(=O)O)N2CCC(CN3CCC(Oc4ccc(Cl)c(Cl)c4)CC3)CC2)c1 | < 3 | < 3 |  |  | 
Cc1cc(F)ccc1OC1CCN(CC2CCN([C@@H](Cc3ccc(F)cc3)C(=O)O)CC2)CC1 | < 3 | < 3 |  |  | 
O=C(O)Cc1ccccc1N1CCC(CN2CCC(Oc3ccc(Cl)c(Cl)c3)CC2)CC1 | < 3 | < 3 |  |  | 

Structure (SMILES) | microsomal CLint (in vitro [1]) [µL/min/mg] | hepatocyte CLint (in vitro [2]) [µL/min/1e6 cells] | logD (physchem [3]; pH 7.4, LogD7.4) | fraction unbound at 5 h (in vitro [4]; PPB) | other results
Cc1cn([C@H]2CCCN([C@@H](CC(C)(C)C)c3ccc(C(=O)O)c(Oc4cccc(Br)c4)c3)C2)c(=O)[nH]c1=O |  | < 3 | 1.12 | 0.0099 | 
CCC(CC)C[C@H](c1ccc(C(=O)O)c(Oc2cccc(Cl)c2)c1)N1CCC[C@H](n2cc(C)c(=O)[nH]c2=O)C1 |  | 36.3 | 1.68 | 0.0119 | 
CCCC(C)(C)C[C@H](c1ccc(C(=O)O)c(Oc2cccc(Cl)c2)c1)N1CCC[C@H](n2cc(C)c(=O)[nH]c2=O)C1 |  | 52.5 | 1.99 | 0.0099 | 
Cc1cn([C@H]2CCCN([C@H](CC3CCOCC3)c3ccc(C(=O)O)c(Oc4cccc(Cl)c4)c3)C2)c(=O)[nH]c1=O |  | 19.1 | -0.25 | 0.107 | 
O=C(NCc1ccccc1)c1ccc2cccnc2c1O | 49 | 22.8 |  |  | 
COC(=O)C1=C(C)NC2=C(C(=O)CC(C)(C)C2)C1c1ccc(-c2ccc(C(F)(F)F)cc2)cc1 (stereo not drawn) | 9.12 | 12.3 |  |  | 
CCc1cccc2c1N(C)Cc1cc3c(cc1-2)OCO3 | 44.7 | > 150 |  |  | 
Cc1cn([C@H]2CCCN(S(=O)(=O)c3ccc(O)c(Oc4ccc(Cl)cc4)c3)C2)c(=O)[nH]c1=O |  | 89.1 | 2.12 | 0.0139 | 
Cc1cn([C@H]2CCCN(S(=O)(=O)c3ccc(O)c(Oc4cccc(Br)c4)c3)C2)c(=O)[nH]c1=O |  | 38 | 2.3 | 0.0139 | 
Cc1cn([C@H]2CCCN(S(=O)(=O)c3ccc(O)c(Oc4cc(F)cc(Cl)c4)c3)C2)c(=O)[nH]c1=O |  | 74.1 |  | 0.0119 | 
C=CC(=O)Nc1ccc2ncnc(Nc3cccc(C)c3)c2c1 |  | > 150 | 3.7 |  | solubility thermodynamic (physchem [5]): 16.6 µM (≈ 5.05 µg/mL)
CS(=O)(=O)Nc1ccc(CCOCCCS(=O)(=O)CCNCCc2ccc(O)c3nc(O)sc23)cc1 | 28 | 105 |  |  | 
C[C@@H]1CN(c2ccc(F)cc2C(F)(F)F)CCN1S(=O)(=O)c1ccc(C(N)=O)cc1Cl | 6.31 | 63.1 |  |  | 
CCCCCCCC(=O)N[C@@H](C)C(=O)N[C@H](C(=O)N[C@@H](CCN)C(=O)N[C@H]1CCNC(=O)[C@H]([C@@H](C)O)NC(=O)[C@H](CCN)NC(=O)[C@H](CCN)NC(=O)[C@H](CC(C)C)NC(=O)[C@@H](Cc2ccccc2)NC(=O)[C@H](CCN)NC1=O)[C@@H](C)O (HELM PEPTIDE1{[CCCCCCCC(=O)[*:2]].A.T.[Dab].[Dab].[Dab].[dF].L.[Dab].[Dab].T}$PEPTIDE1,PEPTIDE1,5:R3-11:R2$$$V2.0) |  | < 3 |  | 0.107 | 
CCCCCCCC(=O)N[C@@H](CCN)C(=O)N[C@@H](C)C(=O)N[C@@H](CCN)C(=O)N[C@H]1CCNC(=O)[C@H]([C@@H](C)O)NC(=O)[C@H](CCN)NC(=O)[C@H](CCN)NC(=O)[C@H](CC(C)C)NC(=O)[C@@H](Cc2ccccc2)NC(=O)[C@H](CCN)NC1=O (HELM PEPTIDE1{[CCCCCCCC(=O)[*:2]].[Dab].A.[Dab].[Dab].[Dab].[dF].L.[Dab].[Dab].T}$PEPTIDE1,PEPTIDE1,5:R3-11:R2$$$V2.0) |  | < 3 |  | 0.0768 | 
CCCCCCCC(=O)N[C@@H](CCN)C(=O)N[C@H](C(=O)N[C@@H](CCN)C(=O)N[C@H]1CCNC(=O)[C@H](C)NC(=O)[C@H](CCN)NC(=O)[C@H](CCN)NC(=O)[C@H](CC(C)C)NC(=O)[C@@H](Cc2ccccc2)NC(=O)[C@H](CCN)NC1=O)[C@@H](C)O (HELM PEPTIDE1{[CCCCCCCC(=O)[*:2]].[Dab].T.[Dab].[Dab].[Dab].[dF].L.[Dab].[Dab].A}$PEPTIDE1,PEPTIDE1,5:R3-11:R2$$$V2.0) |  | < 3 |  | 0.0581 | 
C[C@@]1(C(=O)Nc2ccc(F)nc2)CCCN1c1nc(Nc2cc(C3CC3)n[nH]2)c2cccn2n1 [BMS-754807] |  | 70.8 | 3.16 | 0.0209 | 
CC(=O)N[C@@H](CCN)C(=O)N[C@H](C(=O)N[C@@H](CCN)C(=O)N[C@H]1CCNC(=O)[C@H]([C@@H](C)O)NC(=O)[C@H](CCN)NC(=O)[C@H](CCN)NC(=O)[C@H](CC(C)C)NC(=O)[C@@H](Cc2ccccc2)NC(=O)[C@H](CCN)NC1=O)[C@@H](C)O [DEACYL POLYMYXIN B] (HELM PEPTIDE1{[ac].[Dab].T.[Dab].[Dab].[Dab].[dF].L.[Dab].[Dab].T}$PEPTIDE1,PEPTIDE1,5:R3-11:R2$$$V2.0) |  | < 3 |  | 0.355 | 
N#CCNC(=O)c1ccc(-c2ccnc(Nc3ccc(N4CCOCC4)cc3)n2)cc1 [MOMELOTINIB] |  | 5.13 | 2.37 | 0.103 | 
CC1(C)CCC(c2ccc(Cl)cc2)=C(CN2CCN(c3ccc(C(=O)NS(=O)(=O)c4ccc(N[C@H](CCN5CCOCC5)CSc5ccccc5)c(S(=O)(=O)C(F)(F)F)c4)cc3)CC2)C1 [NAVITOCLAX] |  | 9.77 | 0.64 |  | 
COC1=CC(c2cc3ccccc3[nH]2)=N/C1=C\c1[nH]c(C)cc1C [OBATOCLAX] |  | 22.4 | 2.55 |  | 
Cc1ccccc1C(OCCN(C)C)c1ccccc1 (stereo not drawn) [ORPHENADRINE] |  | > 150 | 1.47 |  | 
CO[C@H]1/C=C/O[C@@]2(C)Oc3c(C)c(O)c4c(O)c(cc(O)c4c3C2=O)NC(=O)/C(C)=C\C=C\[C@H](C)[C@H](O)[C@@H](C)[C@@H](O)[C@@H](C)[C@H](OC(C)=O)[C@@H]1C [RIFAMYCIN] |  | < 3 | 1.19 |  | 
CC[C@@]1(O)C(=O)OCc2c1cc1n(c2=O)Cc2cc3c(CN(C)C)c(O)ccc3nc2-1 [TOPOTECAN] |  | 3.24 | 0.31 |  | 
CC(=O)[C@@]1(O)CC[C@H]2[C@@H]3CCC4=CC(=O)CCC4=C3[C@@H](c3ccc(N(C)C)cc3)C[C@@]21C [ULIPRISTAL] |  | > 150 |  |  | fraction unbound at 5 h (in vitro [4]): 0.0049
CN[C@@H](C)C(=O)N[C@H]1CN(C(=O)CC(C)C)CC[C@H]2CC[C@@H](C(=O)NC(c3ccccc3)c3ccccc3)N2C1=O [XEVINAPANT] |  | 17 | 1.82 | 0.253 | 
